Reference: article PMC4724249 (European journal of medicinal chemistry, 2015)

Legend:
[1] = tested on: MRSA CBD-635 and P. aeruginosa USF-1423; assay: MIC of reference antibiotics at the start of serial passage; format: cell-based; conditions: organism not stated in the legend of Figure 4
[2] = tested on: a variety of fungi and Gram-positive bacteria; conditions: cited from earlier work

Compound: CN[C@H](CC(C)C)C(=O)N[C@H]1C(=O)N[C@@H](CC(N)=O)C(=O)N[C@H]2C(=O)N[C@H]3C(=O)N[C@H](C(=O)N[C@H](C(=O)O)c4cc(O)cc(O)c4-c4cc3ccc4O)[C@H](O)c3ccc(c(Cl)c3)Oc3cc2cc(c3O[C@@H]2O[C@H](CO)[C@@H](O)[C@H](O)[C@H]2O[C@H]2C[C@](C)(N)[C@H](O)[C@H](C)O2)Oc2ccc(cc2Cl)[C@H]1O [Vancomycin]
- MIC of reference antibiotic [1]: 7 µM

Compound: O=C(O)c1cn(C2CC2)c2cc(N3CCNCC3)c(F)cc2c1=O [ciprofloxacin]
- MIC of reference antibiotic [1]: 30 µM

Compound: fusaricidin A
- MICs [2]: 0.78 to 3.12 µg/mL
